Several values for one entry are separate records, joined by “and”; a condition that tells them apart may be missing. Equal values may be shown once. Inconclusive results and toxic doses are left out. Rule as the data show it: active = T/C of 150% or more; inactive = T/C below 125%.
System: L1210 leukemia ip in BDF1 mice, survival T/C
Assay: NCI In Vivo Anticancer Drug Screen. Data for tumor model L1210 Leukemia (intraperitoneal) in B6D2F1 (BDF1) mice
Details: endpoint: mean survival time, higher = longer survival
Summary of the method: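 Transplanted-tumor mice were given test agent; controls received vehicle only. Survival readings from the two groups were divided (treated over control).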

[1] = dose: 100.0 mg/kg/injection, schedule: Q01DX009 (ip), vehicle: saline with Tween-80
[2] = dose: 100.0 mg/kg/injection, schedule: Q04DX003 (ip), vehicle: saline with Tween-80
[3] = dose: 200.0 mg/kg/injection, schedule: Q01DX009 (ip), vehicle: saline with Tween-80
[4] = dose: 200.0 mg/kg/injection, schedule: Q04DX003 (ip), vehicle: saline with Tween-80
[5] = dose: 400.0 mg/kg/injection, schedule: Q01DX009 (ip), vehicle: saline with Tween-80
[6] = dose: 400.0 mg/kg/injection, schedule: Q04DX003 (ip), vehicle: saline with Tween-80
[7] = dose: 100.0 mg/kg/injection, schedule: Q01DX001 (ip), vehicle: carboxymethylcellulose (CMC)
[8] = dose: 200.0 mg/kg/injection, schedule: Q01DX001 (ip), vehicle: carboxymethylcellulose (CMC)
[9] = dose: 400.0 mg/kg/injection, schedule: Q01DX001 (ip), vehicle: carboxymethylcellulose (CMC)
[10] = dose: 100.0 mg/kg/injection, schedule: Q01DX009 (ip), vehicle: Klucel (hydroxypropylcellulose) (HPC)
[11] = dose: 400.0 mg/kg/injection, schedule: Q01DX009 (ip), vehicle: Klucel (hydroxypropylcellulose) (HPC)
[12] = dose: 100.0 mg/kg/injection, schedule: Q04DX003 (ip), vehicle: Klucel (hydroxypropylcellulose) (HPC)
[13] = dose: 100.0 mg/kg/injection, schedule: Q01DX001 (ip), vehicle: saline
[14] = dose: 200.0 mg/kg/injection, schedule: Q01DX001 (ip), vehicle: saline
[15] = dose: 400.0 mg/kg/injection, schedule: Q01DX001 (ip), vehicle: saline
[16] = dose: 100.0 mg/kg/injection, schedule: Q04DX002 (ip), vehicle: saline with Tween-80
[17] = dose: 200.0 mg/kg/injection, schedule: Q04DX002 (ip), vehicle: saline with Tween-80
[18] = dose: 200.0 mg/kg/injection, schedule: Q01DX009 (ip), vehicle: Klucel (hydroxypropylcellulose) (HPC)
[19] = dose: 100.0 mg/kg/injection, schedule: Q04DX002 (ip), vehicle: Klucel (hydroxypropylcellulose) (HPC)
[20] = dose: 200.0 mg/kg/injection, schedule: Q04DX002 (ip), vehicle: Klucel (hydroxypropylcellulose) (HPC)

Measured: T/C

CC(=O)OC1(C2(OC(C)=O)C=CC(=NS(=O)(=O)c3ccccc3)C=C2)C=CC(=NS(=O)(=O)c2ccccc2)C=C1 (stereo not drawn)
inactive: [1] 100 % of control | [2] 94 % of control | [3] 93 % of control | [4] 90 % of control | [5] 97 % of control | [6] 87 % of control

Cc1ccccc1CC1c2[nH]c3ccccc3c2CCN1C (stereo not drawn)
inactive: dose: 75.0 mg/kg/injection, schedule: Q01DX001 (ip), vehicle: other 92 % of control | dose: 150.0 mg/kg/injection, schedule: Q01DX001 (ip), vehicle: other 86 % of control

C=Cc1cccc[n+]1[O-]
inactive: dose: 100.0 mg/kg/injection, schedule: Q01DX009 (ip), vehicle: saline 115 % of control | dose: 200.0 mg/kg/injection, schedule: Q01DX009 (ip), vehicle: saline 102 % of control | dose: 400.0 mg/kg/injection, schedule: Q01DX009 (ip), vehicle: saline 102 % of control

CCOC(=O)CCc1ccc(N=NN(C)C(C)CC)cc1 (stereo not drawn)
inactive: [7] 111 % of control | [8] 105 % of control | [9] 111 % of control

O=S(=O)(O)CCN1CCOCC1
inactive: [10] 100 % of control | [11] 100 % of control

Cc1ccc(S(=O)(=O)/N=C(\N)CCl)cc1
inactive: dose: 12.5 mg/kg/injection, schedule: Q04DX002 (ip), vehicle: saline with Tween-80 98 % of control | dose: 25.0 mg/kg/injection, schedule: Q04DX002 (ip), vehicle: saline with Tween-80 120 % of control | dose: 50.0 mg/kg/injection, schedule: Q04DX002 (ip), vehicle: saline with Tween-80 95 % of control

O=c1c[n+](Cc2ccc(Cl)cc2)[nH]o1
inactive: dose: 100.0 mg/kg/injection, schedule: Q01DX Z (ip), vehicle: saline 100 % of control | dose: 200.0 mg/kg/injection, schedule: Q01DX Z (ip), vehicle: saline 100 % of control

Cc1cc(-c2ccc(NC(=O)N(C)CCC#N)c(C)c2)ccc1NC(=O)N(C)CCC#N
inactive: dose: 100.0 mg/kg/injection, schedule: Q01DX009 (ip), vehicle: other 88 % of control | dose: 200.0 mg/kg/injection, schedule: Q01DX009 (ip), vehicle: other 97 % of control | dose: 400.0 mg/kg/injection, schedule: Q01DX009 (ip), vehicle: other 100 % of control

Nc1ccc([N+](=O)[O-])cc1[N+](=O)[O-]
inactive: dose: 25.0 mg/kg/injection, schedule: Q04DX003 (ip), vehicle: Klucel (hydroxypropylcellulose) (HPC) 103 % of control | dose: 50.0 mg/kg/injection, schedule: Q04DX003 (ip), vehicle: Klucel (hydroxypropylcellulose) (HPC) 98 % of control | [12] 95 % of control and 105 % of control

OCCSc1ccccc1
inactive: dose: 100.0 mg/kg/injection, schedule: Q04DX003 (ip), vehicle: other 97 % of control | dose: 200.0 mg/kg/injection, schedule: Q04DX003 (ip), vehicle: other 103 % of control | dose: 400.0 mg/kg/injection, schedule: Q04DX003 (ip), vehicle: other 93 % of control

CCCCC(=O)N/N=C\c1cccc(OCc2ccccc2)c1
inactive: [13] 107 % of control | [14] 102 % of control | [15] 109 % of control

Cc1ccc(S(=O)(=O)NC(=O)NC2CCCCC2)cc1
inactive: dose: 100.0 mg/kg/injection, schedule: Q04DX003 (ip), vehicle: saline 88 % of control | dose: 200.0 mg/kg/injection, schedule: Q04DX003 (ip), vehicle: saline 93 % of control | dose: 400.0 mg/kg/injection, schedule: Q04DX003 (ip), vehicle: saline 104 % of control

COc1cc(C=Nc2ccc(Cl)cc2)ccc1OC(=O)c1ccccc1
inactive: [16] 91 % of control | [17] 87 % of control

CN(Cc1ccccc1)C(=O)Nc1ccc(Cl)c(Cl)c1
inactive: [10] 97 % of control | [18] 110 % of control | [11] 101 % of control

CC(=O)OCCS(=O)(=O)c1c(Cl)c(Cl)c(Cl)c(Cl)c1Cl
inactive: [19] 95 % of control | [20] 88 % of control

C1=Nc2ccccc2/C1=C/c1cccs1
inactive: [7] 97 % of control | dose: 100.0 mg/kg/injection, schedule: Q01DX009 (ip), vehicle: carboxymethylcellulose (CMC) 96 % of control and 108 % of control | dose: 100.0 mg/kg/injection, schedule: Q04DX002 (ip), vehicle: carboxymethylcellulose (CMC) 100 % of control and 102 % of control | dose: 100.0 mg/kg/injection, schedule: Q04DX003 (ip), vehicle: carboxymethylcellulose (CMC) 95 % of control | [8] 98 % of control | dose: 200.0 mg/kg/injection, schedule: Q01DX009 (ip), vehicle: carboxymethylcellulose (CMC) 96 % of control and 105 % of control | dose: 200.0 mg/kg/injection, schedule: Q04DX002 (ip), vehicle: carboxymethylcellulose (CMC) 104 % of control and 110 % of control | dose: 200.0 mg/kg/injection, schedule: Q04DX003 (ip), vehicle: carboxymethylcellulose (CMC) 89 % of control | [9] 93 % of control | dose: 400.0 mg/kg/injection, schedule: Q01DX009 (ip), vehicle: carboxymethylcellulose (CMC) 89 % of control and 91 % of control | dose: 400.0 mg/kg/injection, schedule: Q04DX002 (ip), vehicle: carboxymethylcellulose (CMC) 103 % of control and 104 % of control

CC(C)=NNc1ccc([N+](=O)[O-])cc1[N+](=O)[O-]
inactive: dose: 50.0 mg/kg/injection, schedule: Q04DX002 (ip), vehicle: Klucel (hydroxypropylcellulose) (HPC) 100 % of control | [19] 94 % of control and 107 % of control | [20] 102 % of control | dose: 400.0 mg/kg/injection, schedule: Q04DX002 (ip), vehicle: Klucel (hydroxypropylcellulose) (HPC) 100 % of control and 105 % of control

O=C(CCCC(=O)N/N=C/c1cc(Cl)cc(Cl)c1O)N/N=C\c1cc(Cl)cc(Cl)c1O
inactive: dose: 50.0 mg/kg/injection, schedule: Q01DX001 (ip), vehicle: saline 100 % of control | [13] 97 % of control | [14] 100 % of control | [15] 97 % of control

CCP(=O)(CC(=O)O)c1ccccc1 (stereo not drawn)
inactive: [16] 109 % of control | [17] 103 % of control | dose: 400.0 mg/kg/injection, schedule: Q04DX002 (ip), vehicle: saline with Tween-80 103 % of control

Brc1n[nH]c(Br)n1
inactive: [1] 93 % of control | [3] 93 % of control | [5] 91 % of control

CC(=O)Nc1ccc2oc(=O)ccc2c1
inactive: [2] 98 % of control | [4] 105 % of control | [6] 98 % of control

CCCCCC(=O)N1CCCCC1
inactive: dose: 25.0 mg/kg/injection, schedule: Q01DX009 (ip), vehicle: Klucel (hydroxypropylcellulose) (HPC) 93 % of control | dose: 50.0 mg/kg/injection, schedule: Q01DX009 (ip), vehicle: Klucel (hydroxypropylcellulose) (HPC) 96 % of control | [10] 94 % of control

NC(=S)N/N=C(\c1ccc(Cl)cc1)C1CC1
inactive: dose: 3.0 mg/kg/injection, schedule: Q01DX Z (ip), vehicle: carboxymethylcellulose (CMC) 96 % of control | dose: 7.0 mg/kg/injection, schedule: Q01DX Z (ip), vehicle: carboxymethylcellulose (CMC) 96 % of control | dose: 7.0 mg/kg/injection, schedule: Q01DX Z (sc), vehicle: carboxymethylcellulose (CMC) 121 % of control | dose: 15.0 mg/kg/injection, schedule: Q01DX Z (ip), vehicle: carboxymethylcellulose (CMC) 97 % of control | dose: 15.0 mg/kg/injection, schedule: Q01DX Z (sc), vehicle: carboxymethylcellulose (CMC) 120 % of control

O=c1c2ccccc2ccc2ccccc12
inactive: dose: 100.0 mg/kg/injection, schedule: Q01DX001 (ip), vehicle: Klucel (hydroxypropylcellulose) (HPC) 103 % of control | [10] 97 % of control | [12] 100 % of control | dose: 200.0 mg/kg/injection, schedule: Q01DX001 (ip), vehicle: Klucel (hydroxypropylcellulose) (HPC) 93 % of control | [18] 102 % of control | dose: 200.0 mg/kg/injection, schedule: Q04DX003 (ip), vehicle: Klucel (hydroxypropylcellulose) (HPC) 103 % of control | dose: 400.0 mg/kg/injection, schedule: Q01DX001 (ip), vehicle: Klucel (hydroxypropylcellulose) (HPC) 103 % of control | [11] 100 % of control | dose: 400.0 mg/kg/injection, schedule: Q04DX003 (ip), vehicle: Klucel (hydroxypropylcellulose) (HPC) 105 % of control
